Results published in US20250295627A1 (Leibniz-Institut Fuer Neurobiologie, priority 2022, published 2025).

What was measured:
hippocampal neurons = assay: Aβ-induced synapse loss (synaptophysin/Shank3 puncta) in dissociated hippocampal neurons; type: cell-based, rat; details: 5 μM Nitarsone, 48 h, 500 nM Aβ1-42
Protocol: Hippocampal and cortical cultures were prepared from Wistar rat embryos (E18) of mixed sex as described previously (Spilker et al., 2016). Briefly, dissected were digested for 15 min with trypsin at 37° C. Neurons were plated on plastic 12-well dishes (Greiner) on glass coverslips coated with poly-L-lysine (Sigma-Aldrich) at a density of 60 000 cells/well in DMEM medium (Gibco, Thermo Fisher Scientific) supplemented with 10% FCS, 1× penicillin/streptomycin, and 2 mM glutamine. After 1 h incubation (at the 37° C., 5% CO2, 95% humidity) cells were kept in BrainPhys medium supplemented with 1% SM1 (Stemmcell Technologies), 0.5 mM Glutamine (Gibco) at 37° C., 5% CO2 and 95% humidity. […]
For quantitation of nuclear staining intensity (pCREB or CREB) somatic regions were sequentially scanned using the 63× objective (Leica) in both: Leica TCS SP8-STED and Leica TCS SP5 systems. […] Unprocessed images were analysed using Fiji/ImageJ software (Schindelin et al., 2012). For visualization of the quantified channel a fire look-up table (LUT) was used. Synaptic density was quantified in secondary dendrites using Fiji/ImageJ (Schindelin et al., 2012). […] Intensity of the GluA1 channel was measured in ROIs defined by a Shank3 mask as a readout for surface AMPAR expression.

[1] = tested on: hippocampal primary neurons; assay: Whole-cell voltage-clamp recording of mEPSCs; type: cell-based, rat
pCREB = pCREB in primary cortical cultures overexpressing poly(GA) aggregates (ALS model); type: cell-based, rodent; details: 5 µM nitarsone, 48 hours

Question: What does the source list for `O=[N+]([O-])c1ccc([As](=O)(O)O)cc1` [Nitarsone, (4-nitrophenyl) arsonic acid]?
Answer: Aβ-induced synapse loss (hippocampal neurons): completely prevented; mEPSC amplitude ([1]; co-application of 5 µM Nitarsone with 500 nM Aβ1-42, 48 h): restored mEPSC amplitude; mEPSC amplitude and frequency ([1]; drug alone, 5 µM, 48 h): no effect on both measures; pCREB nuclear immunoreactivity (pCREB; control cells (poly (GA)-negative)): do not display any change; poly (GA)-induced decrease in pCREB nuclear immunoreactivity (pCREB; poly-(GA) 175-EGFP-transduced cells): completely rescued
